Laboratory results taken from the supplement of paper PMC10307832.

Experiments:
Experiment in all cases: relative viability (nuclei count vs DMSO), 5 days (fraction); higher = more cells survive
BI-D1870 + Navitoclax = compound: CC(C)CCN1c2nc(Nc3cc(F)c(O)c(F)c3)ncc2N(C)C(=O)C1C [BI-D1870] + CC1(C)CCC(c2ccc(Cl)cc2)=C(CN2CCN(c3ccc(C(=O)NS(=O)(=O)c4ccc(N[C@H](CCN5CCOCC5)CSc5ccccc5)c(S(=O)(=O)C(F)(F)F)c4)cc3)CC2)C1 [Navitoclax] (partner 0.5 µM)
Method in brief: (§1)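 Lung cancer cell lines were seeded in 1536-well plates and dosed by pin tool the next day, with either a single drug or a fixed anchor-drug dose combined with five library-drug doses (not always all listed) spaced in √10 steps. Five days later, one step fixed the cells and stained their nuclei (final 0.05% Triton X-100, 1% formaldehyde, 1 ug/ml Hoechst), and nuclei were counted on 4× images. Relative viability is the nuclei count in treated wells divided by the count in vehicle wells, and each value is the median of duplicate plates.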

BI-D1870 + OSI-027 = compound: CC(C)CCN1c2nc(Nc3cc(F)c(O)c(F)c3)ncc2N(C)C(=O)C1C [BI-D1870] + COc1cccc2cc(-c3nc([C@H]4CC[C@H](C(=O)O)CC4)n4ncnc(N)c34)[nH]c12 [OSI-027] (partner 0.5 µM)
Method in brief: as §1

Zebularine + Navitoclax = compound: O=c1ncccn1[C@@H]1O[C@H](CO)[C@@H](O)[C@H]1O [Zebularine] + CC1(C)CCC(c2ccc(Cl)cc2)=C(CN2CCN(c3ccc(C(=O)NS(=O)(=O)c4ccc(N[C@H](CCN5CCOCC5)CSc5ccccc5)c(S(=O)(=O)C(F)(F)F)c4)cc3)CC2)C1 [Navitoclax] (partner 0.5 µM)
Method in brief: as §1

Zebularine + Lapatinib = compound: O=c1ncccn1[C@@H]1O[C@H](CO)[C@@H](O)[C@H]1O [Zebularine] + CS(=O)(=O)CCNCc1ccc(-c2ccc3ncnc(Nc4ccc(OCc5cccc(F)c5)c(Cl)c4)c3c2)o1 [Lapatinib] (partner 2 µM)
Method in brief: as §1

## UMC-11
BI-D1870 + Navitoclax; first compound 0.04 µM
  relative viability: 0.287
BI-D1870 + Navitoclax; first compound 0.1265 µM
  relative viability: 0.295
BI-D1870 + Navitoclax; first compound 0.4 µM
  relative viability: 0.311
BI-D1870 + Navitoclax; first compound 1.265 µM
  relative viability: 0.336
BI-D1870 + Navitoclax; first compound 4 µM
  relative viability: 0.129
BI-D1870 + OSI-027; first compound 0.04 µM
  relative viability: 0.519
BI-D1870 + OSI-027; first compound 0.1265 µM
  relative viability: 0.48
BI-D1870 + OSI-027; first compound 0.4 µM
  relative viability: 0.479
BI-D1870 + OSI-027; first compound 1.265 µM
  relative viability: 0.406
BI-D1870 + OSI-027; first compound 4 µM
  relative viability: 0.16
Zebularine + Navitoclax; first compound 1 µM
  relative viability: 0.316
Zebularine + Navitoclax; first compound 3.162 µM
  relative viability: 0.328
Zebularine + Navitoclax; first compound 10 µM
  relative viability: 0.265
Zebularine + Navitoclax; first compound 31.62 µM
  relative viability: 0.344
Zebularine + Navitoclax; first compound 100 µM
  relative viability: 0.238
Zebularine + Lapatinib; first compound 1 µM
  relative viability: 1.28
Zebularine + Lapatinib; first compound 3.162 µM
  relative viability: 0.977
Zebularine + Lapatinib; first compound 10 µM
  relative viability: 0.614
Zebularine + Lapatinib; first compound 31.62 µM
  relative viability: 0.849
Zebularine + Lapatinib; first compound 100 µM
  relative viability: 0.436
